The source of these data is patent publication US11090319B2, “Therapeutic uses of pharmaceutical compositions comprising cyclic boronic acid ester derivatives” (Melinta Subsidiary Corp., priority 2010, dated 2021).

Where two headings read alike, the source gives them in different places. Bounds are passed on as bounds.

Assay [1] has as its system ECL1004 Enterobacter cloacae NMC-A. The experiment in a line: Checkerboard assay, biapenem potentiation. Particulars: Biapenem MIC 8-fold; ECL1004 NMC-A class A.
Assay [2] concerns EC1007 Escherichia coli KPC-3. The experiment in a line: Checkerboard assay, biapenem potentiation. Particulars: Biapenem MIC 8-fold; EC1007 KPC-3 class A.
The subject of assay [3] is SM1000 Serratia marcescens SME-2. The experiment in a line: Checkerboard assay, biapenem potentiation. Particulars: Biapenem MIC 8-fold; SM1000 SME-2 class A.
The test system of assay [4] is KP1005 Klebsiella pneumoniae CTX-M-14. The experiment in a line: Checkerboard assay, ceftazidime potentiation. The conditions noted are these: ceftazidime MIC 8-fold; KP1005 CTX-M-14 class A.
In assay [5] the test system is KP1009 Klebsiella pneumoniae CTX-M-15. The experiment in a line: Checkerboard assay, ceftazidime potentiation. The conditions noted are these: ceftazidime MIC 8-fold; KP1009 CTX-M-15 class A.
Assay [6] has as its system EC1008 Escherichia coli CTX-M-3. The experiment in a line: Checkerboard assay, ceftazidime potentiation. The conditions noted are these: ceftazidime MIC 8-fold; EC1008 CTX-M-3 class A.
For assay [7], the system named is KP1004 Klebsiella pneumoniae KPC-2. The experiment in a line: Checkerboard assay, ceftazidime potentiation. Particulars: ceftazidime MIC 8-fold; KP1004 KPC-2 class A.
Assay [8] concerns KP1008 Klebsiella pneumoniae KPC-2. As to the kind of experiment: Checkerboard assay, ceftazidime potentiation. Particulars: ceftazidime MIC 8-fold; KP1008 KPC-2 class A.
The test system of assay [9] is EC1007 Escherichia coli KPC-3. As to the kind of experiment: Checkerboard assay, ceftazidime potentiation. Particulars: ceftazidime MIC 8-fold; EC1007 KPC-3 class A.
The subject of assay [10] is KP1010 Klebsiella pneumoniae SHV-12. The experiment in a line: Checkerboard assay, ceftazidime potentiation. The conditions noted are these: ceftazidime MIC 8-fold; KP1010 SHV-12 class A.
Assay [11] relates to KP1012 Klebsiella pneumoniae SHV-18. The experiment in a line: Checkerboard assay, ceftazidime potentiation. The conditions noted are these: ceftazidime MIC 8-fold; KP1012 SHV-18 class A.
Assay [12] relates to ec306 Escherichia coli SHV-2. The experiment in a line: Checkerboard assay, ceftazidime potentiation. The conditions noted are these: ceftazidime MIC 8-fold; ec306 SHV-2 class A.
In assay [13] the test system is ec307 Escherichia coli SHV-4. The experiment in a line: Checkerboard assay, ceftazidime potentiation. The conditions noted are these: ceftazidime MIC 8-fold; ec307 SHV-4 class A.
Assay [14] relates to ec308 Escherichia coli SHV-5. The experiment in a line: Checkerboard assay, ceftazidime potentiation. Particulars: ceftazidime MIC 8-fold; ec308 SHV-5 class A.
Assay [15] deals with EC1009 Escherichia coli TEM-10. As to the kind of experiment: Checkerboard assay, ceftazidime potentiation. The conditions noted are these: ceftazidime MIC 8-fold; EC1009 TEM-10 class A.
The subject of assay [16] is ec302 Escherichia coli TEM-10. The experiment in a line: Checkerboard assay, ceftazidime potentiation. The conditions noted are these: ceftazidime MIC 8-fold; ec302 TEM-10 class A.
In assay [17] the test system is EC1012 Escherichia coli TEM-12. As to the kind of experiment: Checkerboard assay, ceftazidime potentiation. The conditions noted are these: ceftazidime MIC 8-fold; EC1012 TEM-12 class A.
Assay [18] deals with ec303 Escherichia coli TEM-12. The experiment in a line: Checkerboard assay, ceftazidime potentiation. The conditions noted are these: ceftazidime MIC 8-fold; ec303 TEM-12 class A.
The subject of assay [19] is EC1011 Escherichia coli TEM-26. The experiment in a line: Checkerboard assay, ceftazidime potentiation. Particulars: ceftazidime MIC 8-fold; EC1011 TEM-26 class A.
In assay [20] the test system is ec304 Escherichia coli TEM-26. As to the kind of experiment: Checkerboard assay, ceftazidime potentiation. The conditions noted are these: ceftazidime MIC 8-fold; ec304 TEM-26 class A.
The subject of assay [21] is ec300 Escherichia coli TEM-3. The experiment in a line: Checkerboard assay, ceftazidime potentiation. Particulars: ceftazidime MIC 8-fold; ec300 TEM-3 class A.
Assay [22] concerns ec301 Escherichia coli TEM-6. The experiment in a line: Checkerboard assay, ceftazidime potentiation. The conditions noted are these: ceftazidime MIC 8-fold; ec301 TEM-6 class A.
The subject of assay [23] is CF1000 Citrobacter freundii Hyper AmpC expression. As to the kind of experiment: Checkerboard assay, ceftazidime potentiation. The conditions noted are these: ceftazidime MIC 8-fold; CF1000 Hyper AmpC class C.
The test system of assay [24] is ECL1003 Enterobacter cloacae Hyper AmpC expression. As to the kind of experiment: Checkerboard assay, ceftazidime potentiation. The conditions noted are these: ceftazidime MIC 8-fold; ECL1003 Hyper AmpC class C.
Assay [25] relates to ec310 Escherichia coli ACT-1. As to the kind of experiment: Checkerboard assay, ceftazidime potentiation. Particulars: ceftazidime MIC 8-fold; ec310 ACT-1 class C.
For assay [26], the system named is EC1004 Escherichia coli CMY-2. As to the kind of experiment: Checkerboard assay, ceftazidime potentiation. Particulars: ceftazidime MIC 8-fold; EC1004 CMY-2 class C.
The test system of assay [27] is EC1010 Escherichia coli CMY-6. The experiment in a line: Checkerboard assay, ceftazidime potentiation. The conditions noted are these: ceftazidime MIC 8-fold; EC1010 CMY-6 class C.
Assay [28] relates to EC1014 Escherichia coli DHA-1. The experiment in a line: Checkerboard assay, ceftazidime potentiation. The conditions noted are these: ceftazidime MIC 8-fold; EC1014 DHA-1 class C.
The test system of assay [29] is EC1006 Escherichia coli FOX-5. As to the kind of experiment: Checkerboard assay, ceftazidime potentiation. The conditions noted are these: ceftazidime MIC 8-fold; EC1006 FOX-5 class C.
In assay [30] the test system is EC1016 Escherichia coli FOX-5. The experiment in a line: Checkerboard assay, ceftazidime potentiation. The conditions noted are these: ceftazidime MIC 8-fold; EC1016 FOX-5 class C.
The subject of assay [31] is KP1007 Klebsiella pneumoniae OXA-10, qnrB4. As to the kind of experiment: Checkerboard assay, ceftazidime potentiation. Particulars: ceftazidime MIC 8-fold; KP1007 OXA-10, qnrB4 class D.
The target in assay [32] is various β-lactamases (bacterial lysates) (Klebsiella pneumoniae, UniProt Q9F663). As to the kind of experiment: biochemical. In kind it is biochemical.
The target of assay [33] is various β-lactamases (bacterial lysates) (Klebsiella pneumoniae, UniProt Q9F663, H272Y). As to the kind of experiment: biochemical. It is filed as biochemical.
In assay [34] the target is various β-lactamases (bacterial lysates) (Pseudomonas aeruginosa, UniProt P14489). The experiment in a line: biochemical. In kind it is biochemical. The conditions noted are these: AZT IC50 KP1007 OXA-10.
Assay [35] concerns strains expressing class A ESBLs. It is filed as cell-based. Here is the method: (§1) Selected β-lactamase inhibitors were also tested for their ability to potentiate the monobactam tigemonam.
Another assay deals with SME-2, lysate of SM1000 (Serratia marcescens, UniProt P52682). The experiment in a line: Inhibition of biapenem hydrolysis by bacterial lysate. Particulars: read-out: IC50 of inhibition of biapenem hydrolysis; SM1000 SME-2.
The target of assay [36] is CTX-M-15, lysate of KP1009 (Escherichia coli, UniProt Q9EXV5). As to the kind of experiment: Inhibition of ceftazidime hydrolysis by bacterial lysate.
Sequence of CTX-M-15, lysate of KP1009 (Q9EXV5 entry or part of it): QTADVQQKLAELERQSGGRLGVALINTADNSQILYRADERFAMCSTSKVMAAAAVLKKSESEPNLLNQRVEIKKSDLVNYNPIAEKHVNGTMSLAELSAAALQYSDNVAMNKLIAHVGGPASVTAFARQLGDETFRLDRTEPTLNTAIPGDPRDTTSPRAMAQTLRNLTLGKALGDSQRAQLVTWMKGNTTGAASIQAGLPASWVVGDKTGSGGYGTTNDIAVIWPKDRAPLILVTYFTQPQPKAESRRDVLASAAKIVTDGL
The target in another assay is GES-1, lysate of pa 1063 (Klebsiella pneumoniae, UniProt Q9KJY7). Described as above.
In a further assay the target is SHV-2, lysate of ec306 (Escherichia coli, UniProt P0A9Z7). Described as above.
The target of the next assay is SHV-5, lysate of ec308 (Escherichia coli, UniProt P0AD63, E235K/G234S). The description is as above.
The next assay concerns the target OXA-10, lysate of KP1007 (Pseudomonas aeruginosa, UniProt P14489). The assay is described as above.
In the next assay the test system is ECL1002. The experiment in a line: Tigemonam potentiation assay (MPC@4), class C and D. In kind it is cell-based, Enterobacter cloacae. As to the method: as §1
The test system of another assay is EC1010 CMY-6. The description is as above. In kind it is cell-based, Escherichia coli. The conditions noted are these: EC1010 CMY-6 class C. As to the method:
as §1

The next assay relates to PAM2035. The assay is described as above. In kind it is cell-based, Pseudomonas aeruginosa. Here is the method:
as §1

For the next assay, the system named is KP1007 OXA-10. It is filed as cell-based, Klebsiella pneumoniae. As to the method: as §1
A further assay relates to KPX1001 OXA-2. In kind it is cell-based. Here is the method:
as §1

Regarding `O=C(O)CC1CC[C@H](NC(=O)Cc2cccs2)B(O)O1` (stereo partly drawn) [Compound 1, 2-((3R)-2-hydroxy-3-(2-(thiophen-2-yl)acetamido)-1,2-oxaborinan-6-yl)acetic acid], the MPC8 result in assay [1] was “Y (MPC8 of 0.16 μg/mL to 1 μg/mL)”; in assay [2], “X (MPC8 of less than 0.16 μg/mL)”; in [3], “Y (MPC8 of 0.16 μg/mL to 1 μg/mL)”; in assay [4], “Z (MPC8 of greater than 10 μg/mL)”; in [5], “Y (MPC8 of greater than 2.5 μg/mL to 10 μg/mL)”; in [6] it was “X (MPC8 of 2.5 μg/mL or less)”. Further, the MPC8 result is reported as “X (MPC8 of 2.5 μg/mL or less)” in assay [7]; “X (MPC8 of 2.5 μg/mL or less)” in [8]; “X (MPC8 of 2.5 μg/mL or less)” in assay [9]; “Y (MPC8 of greater than 2.5 μg/mL to 10 μg/mL)” in assay [10]; “Y (MPC8 of greater than 2.5 μg/mL to 10 μg/mL)” in [11]; “Y (MPC8 of greater than 2.5 μg/mL to 10 μg/mL)” in [12]. Also, the MPC8 entry was “Y (MPC8 of greater than 2.5 μg/mL to 10 μg/mL)” in [13]; “Y (MPC8 of greater than 2.5 μg/mL to 10 μg/mL)” in [14]; “Z (MPC8 of greater than 10 μg/mL)” in [15]; “Z (MPC8 of greater than 10 μg/mL)” in assay [16]; “Y (MPC8 of greater than 2.5 μg/mL to 10 μg/mL)” in assay [17]; “Y (MPC8 of greater than 2.5 μg/mL to 10 μg/mL)” in assay [18]. Further, the MPC8 result in assay [19] was “Z (MPC8 of greater than 10 μg/mL)”; in assay [20], “Z (MPC8 of greater than 10 μg/mL)”; in assay [21], “Y (MPC8 of greater than 2.5 μg/mL to 10 μg/mL)”; in assay [22] it was “Z (MPC8 of greater than 10 μg/mL)”; in [23], “Y (MPC8 of greater than 2.5 μg/mL to 10 μg/mL)”; in assay [24], “Z (MPC8 of greater than 10 μg/mL)”. The MPC8 result is given as “X (MPC8 of 2.5 μg/mL or less)” in assay [25]; “X (MPC8 of 2.5 μg/mL or less)” in assay [26]; “Y (MPC8 of greater than 2.5 μg/mL to 10 μg/mL)” in [27]; “Z (MPC8 of greater than 10 μg/mL)” in assay [28]; “Y (MPC8 of greater than 2.5 μg/mL to 10 μg/mL)” in assay [29]; “Z (MPC8 of greater than 10 μg/mL)” in [30]. In [31], the MPC8 entry was “Y (MPC8 of greater than 2.5 μg/mL to 10 μg/mL)”.

With `C[C@]1(Cn2ccnn2)[C@H](C(=O)O)N2C(=O)C[C@H]2S1(=O)=O` [Tazobactam, reference compound], the IC50 was 7.39 µM in [32] (AZT IC50 KP1008 KPC-2); 2.46 µM in [32] (lysate KP1004 KPC-2, aztreonam cleavage, numeric values, read-out: AZT IC50 KP1004 KPC-2 (converted)); 2.46 µM in assay [33]; 14.8 µM in assay [34]; 0.333 to 3.33 µM at SME-2, lysate of SM1000; < 0.333 µM in [36]. In addition, the IC50 at GES-1, lysate of pa 1063 was 0.333 to 3.33 µM; against SHV-2, lysate of ec306, 0.333 to 3.33 µM; against SHV-5, lysate of ec308 it was < 0.333 µM; against OXA-10, lysate of KP1007, 0.333 to 3.33 µM. Moreover, in assay [35], the “MPC4 CTX-M-14 KP1005” value was found to be 10 µg/mL. Also, the “MPC4 CTX-M-15 KP1009” value in assay [35] amounted to 10 µg/mL. Besides, the “MPC4 SHV-5 ec308” value in assay [35] turned out to be 5 µg/mL. In addition, the “MPC4 SHV-12 KP1010” value in assay [35] came to 1.25 µg/mL. Further, the “MPC4 SHV-18 KP1012” value in assay [35] was 1.25 µg/mL. Moreover, the “MPC4 TEM-10 EC1009” value in [35] came to 2.5 µg/mL. The “MPC4 TEM-10 ec302” value in assay [35] was found to be 5 µg/mL. For the same compound, the “MPC4 TEM-26 ec304” value in assay [35] was 1.25 µg/mL.

As for `CC1(C)[C@H](NC(=O)/C(=N\OCC(=O)O)c2csc(N)n2)C(=O)N1OS(=O)(=O)O` [Tigemonam], the “Tigemonam MIC” value with ECL1002 came out at 32 µg/mL; in the assay with EC1010 CMY-6, 16 µg/mL; in the assay with PAM2035, 8 µg/mL; in the assay on KP1007 OXA-10, 256 µg/mL; in the assay with KPX1001 OXA-2, 8 µg/mL.

Usually IC50 stands for the concentration that gives 50% inhibition.
